Assay results from patent US7432397B2, “Imaging compounds” (Hammersmith Imanet Ltd., priority 2002, dated 2008).
Marks after values point to notes of the source that are not given here.

Test: Biodistribution of radioactivity in rat tissues after intravenous injection
Format: in vivo
Conditions: for Radioactivity in Entorhinal cortex / Radioactivity in Fat / Radioactivity in Heart (ventricle) / Radioactivity in Hippocampus / Radioactivity in Hypothalamus / Radioactivity in Inferior collicull / Radioactivity in Kidney / Radioactivity in Large intestine / Radioactivity in Lge. intestine content / Radioactivity in Liver / Radioactivity in Lung / Radioactivity in Medulla with Pons / Radioactivity in Olfactory bulbs / Radioactivity in Olfactory tubercles / Radioactivity in Prefrontal cortex / Radioactivity in Skeletal muscle / Radioactivity in Skin / Radioactivity in Sm. intestine content / Radioactivity in Small intestine / Radioactivity in Somatosensory cortex / Radioactivity in Spleen / Radioactivity in Stomach / Radioactivity in Striata / Radioactivity in Superior collicull / Radioactivity in Testis / Radioactivity in Thalamus / Radioactivity in Urine / Radioactivity in Visual cortex / Radioactivity in Plasma / Radioactivity in Whole blood / Radioactivity in Cerebellum: i.v.; for Radioactivity in Plasma / Radioactivity in Whole blood: composite curve of 9 rats
Description: Sixteen adult male Sprague-Dawley rats (body weight 250-320 g: mean±SD=288±25 g) were used in 5 separate experiments. Each rat was injected with ˜13 MBq Compound 1, at a specific activity of […], via a previously catheterised tail vein. The associated stable compound was 0.5±0.2 nmol/kg. Discrete samples of arterial blood were collected from 9 of the rats via a previously catheterised tail artery.
Tissues were sampled post-mortem using an established protocol, as described in Hirani et al, Synapse 42:164-176 (2001). The radioactivity concentration data obtained at 12 times up to 90 min after radioligand injection were normalised for both amount injected and body weight, giving:—‘uptake units’=(cpm/g tissue)/(injected cpm/g body weight).

[1] = period 5 to 90 min after intravenous injection

## CSc1cccc(N([11CH3])C(=N)Nc2cc(SC)ccc2Cl)c1 [Compound 1, (N-(2-chloro-5-(methylthio)phenyl)-N′-(3-methylthio)phenyl)-N′-[N-methyl-^11C]-methylguanidine]
60 min
  Radioactivity in Entorhinal cortex: 0.73* Uptake Units
  Radioactivity in Fat: 0.79* Uptake Units
  Radioactivity in Heart (ventricle): 0.59* Uptake Units
  Radioactivity in Hippocampus: 0.76* Uptake Units
  Radioactivity in Hypothalamus: 0.65* Uptake Units
  Radioactivity in Inferior collicull: 0.54* Uptake Units
  Radioactivity in Kidney: 1.87* Uptake Units
  Radioactivity in Large intestine: 1.03* Uptake Units
  Radioactivity in Lge. intestine content: 0.44* Uptake Units
  Radioactivity in Liver: 5.73* Uptake Units
  Radioactivity in Lung: 4.10* Uptake Units
  Radioactivity in Medulla with Pons: 0.67* Uptake Units
  Radioactivity in Olfactory bulbs: 0.55* Uptake Units
  Radioactivity in Olfactory tubercles: 0.65* Uptake Units
  Radioactivity in Prefrontal cortex: 0.77* Uptake Units
  Radioactivity in Skeletal muscle: 0.49* Uptake Units
  Radioactivity in Skin: 0.46* Uptake Units
  Radioactivity in Sm. intestine content: 6.08* Uptake Units
  Radioactivity in Small intestine: 1.29* Uptake Units
  Radioactivity in Somatosensory cortex: 0.68* Uptake Units
  Radioactivity in Spleen: 2.98* Uptake Units
  Radioactivity in Stomach: 0.66* Uptake Units
  Radioactivity in Striata: 0.67* Uptake Units
  Radioactivity in Superior collicull: 0.54* Uptake Units
  Radioactivity in Testis: 0.89* Uptake Units
  Radioactivity in Thalamus: 0.74* Uptake Units
  Radioactivity in Urine: 24.4* Uptake Units
  Radioactivity in Visual cortex: 0.73* Uptake Units
  Radioactivity in Plasma: 0.18 Uptake Units
  Radioactivity in Whole blood: 0.17 Uptake Units
70 min
  Radioactivity in Cerebellum: 0.38* Uptake Units
  Radioactivity in Entorhinal cortex: 0.41 Uptake Units
  Radioactivity in Fat: 0.55* Uptake Units
  Radioactivity in Heart (ventricle): 0.52* Uptake Units
  Radioactivity in Hippocampus: 0.54* Uptake Units
  Radioactivity in Hypothalamus: 0.33 Uptake Units
  Radioactivity in Inferior collicull: 0.39 Uptake Units
  Radioactivity in Kidney: 1.88* Uptake Units
  Radioactivity in Large intestine: 0.76* Uptake Units
  Radioactivity in Lge. intestine content: 0.57* Uptake Units
  Radioactivity in Liver: 6.02* Uptake Units
  Radioactivity in Lung: 4.62* Uptake Units
  Radioactivity in Medulla with Pons: 0.39 Uptake Units
  Radioactivity in Olfactory bulbs: 0.31 Uptake Units
  Radioactivity in Olfactory tubercles: 0.36 Uptake Units
  Radioactivity in Prefrontal cortex: 0.52* Uptake Units
  Radioactivity in Skeletal muscle: 0.44* Uptake Units
  Radioactivity in Skin: 0.47* Uptake Units
  Radioactivity in Sm. intestine content: 5.41* Uptake Units
  Radioactivity in Small intestine: 1.34* Uptake Units
  Radioactivity in Somatosensory cortex: 0.38 Uptake Units
  Radioactivity in Spleen: 2.97* Uptake Units
  Radioactivity in Stomach: 0.96 Uptake Units
  Radioactivity in Striata: 0.46* Uptake Units
  Radioactivity in Superior collicull: 0.28 Uptake Units
  Radioactivity in Testis: 0.74* Uptake Units
  Radioactivity in Thalamus: 0.40 Uptake Units
  Radioactivity in Urine: 16.9* Uptake Units
  Radioactivity in Visual cortex: 0.38 Uptake Units
  Radioactivity in Plasma: 0.20 Uptake Units
  Radioactivity in Whole blood: 0.18 Uptake Units
90 min
  Radioactivity in Cerebellum: 0.32* Uptake Units
  Radioactivity in Entorhinal cortex: 0.38* Uptake Units
  Radioactivity in Fat: 0.51* Uptake Units
  Radioactivity in Heart (ventricle): 0.40* Uptake Units
  Radioactivity in Hippocampus: 0.46* Uptake Units
  Radioactivity in Hypothalamus: 0.35* Uptake Units
  Radioactivity in Inferior collicull: 0.36 Uptake Units
  Radioactivity in Kidney: 1.50* Uptake Units
  Radioactivity in Large intestine: 0.61* Uptake Units
  Radioactivity in Lge. intestine content: 0.66* Uptake Units
  Radioactivity in Liver: 3.85* Uptake Units
  Radioactivity in Lung: 2.62* Uptake Units
  Radioactivity in Medulla with Pons: 0.39* Uptake Units
  Radioactivity in Olfactory bulbs: 0.28* Uptake Units
  Radioactivity in Olfactory tubercles: 0.36* Uptake Units
  Radioactivity in Prefrontal cortex: 0.45* Uptake Units
  Radioactivity in Skeletal muscle: 0.35* Uptake Units
  Radioactivity in Skin: 0.40* Uptake Units
  Radioactivity in Sm. intestine content: 3.66* Uptake Units
  Radioactivity in Small intestine: 0.93* Uptake Units
  Radioactivity in Somatosensory cortex: 0.43* Uptake Units
  Radioactivity in Spleen: 2.07* Uptake Units
  Radioactivity in Stomach: 0.34* Uptake Units
  Radioactivity in Striata: 0.41* Uptake Units
  Radioactivity in Superior collicull: 0.23 Uptake Units
  Radioactivity in Testis: 0.79* Uptake Units
  Radioactivity in Thalamus: 0.42* Uptake Units
  Radioactivity in Urine: 46.4* Uptake Units
  Radioactivity in Visual cortex: 0.44* Uptake Units
  Radioactivity in Plasma: 0.21 Uptake Units
  Radioactivity in Whole blood: 0.18 Uptake Units
[1]
  radioactivity level in plasma: ~0.2 uptake units
  radioactivity level in whole blood: ~0.2 uptake units
